pIC50: −log10 of the molar value.
The compounds below were run against T1, NLRP3 inflammasome (Homo sapiens, UniProt Q96P20) (assay: Evaluation of NLRP3 inflammasome inhibitory activity (inhibition of IL-1β production in LPS/Nigericin-stimulated THP1-Null cells, AlphaLISA)). Conditions: IC50, IL-1β production in THP1-Null cells; PMA, 1 µg/mL Lipopolysaccharides 3 hours, Nigericin 7.5 µmol/L 1.5 hours.
T1 construct: host or cells: THP1-Null cells (PMA-differentiated, LPS-primed, nigericin-stimulated)
T1 sequence (Q96P20 whole entry): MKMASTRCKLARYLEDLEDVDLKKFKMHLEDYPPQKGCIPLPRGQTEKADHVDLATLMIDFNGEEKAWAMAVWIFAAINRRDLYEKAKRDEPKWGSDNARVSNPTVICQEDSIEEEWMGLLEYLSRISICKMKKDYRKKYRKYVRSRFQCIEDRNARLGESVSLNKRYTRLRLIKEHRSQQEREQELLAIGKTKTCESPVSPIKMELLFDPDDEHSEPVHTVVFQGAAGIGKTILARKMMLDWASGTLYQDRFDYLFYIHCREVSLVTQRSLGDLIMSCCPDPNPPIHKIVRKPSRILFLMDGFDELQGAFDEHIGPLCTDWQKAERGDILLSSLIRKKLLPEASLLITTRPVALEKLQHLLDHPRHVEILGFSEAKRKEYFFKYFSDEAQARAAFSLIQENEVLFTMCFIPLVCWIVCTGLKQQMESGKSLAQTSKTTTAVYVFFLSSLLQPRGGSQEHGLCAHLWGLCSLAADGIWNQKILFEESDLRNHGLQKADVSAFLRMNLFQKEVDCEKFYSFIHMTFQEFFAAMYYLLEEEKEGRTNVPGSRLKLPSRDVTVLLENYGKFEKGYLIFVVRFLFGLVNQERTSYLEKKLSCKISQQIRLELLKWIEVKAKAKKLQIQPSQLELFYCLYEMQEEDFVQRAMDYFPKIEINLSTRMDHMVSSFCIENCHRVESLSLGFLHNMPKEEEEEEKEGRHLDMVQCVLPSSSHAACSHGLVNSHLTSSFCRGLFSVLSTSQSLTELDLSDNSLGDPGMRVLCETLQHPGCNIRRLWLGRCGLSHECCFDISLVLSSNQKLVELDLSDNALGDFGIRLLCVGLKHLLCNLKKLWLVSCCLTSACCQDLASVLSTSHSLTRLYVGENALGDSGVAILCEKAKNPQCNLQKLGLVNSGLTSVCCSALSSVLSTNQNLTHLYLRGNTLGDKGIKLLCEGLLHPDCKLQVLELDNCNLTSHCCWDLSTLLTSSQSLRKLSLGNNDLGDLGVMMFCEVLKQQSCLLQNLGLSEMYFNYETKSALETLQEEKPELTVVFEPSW
Format: cell-based
Method: The NLRP3 inflammasome inhibitory activity of test compounds were evaluated on the basis of the inhibitory activity of the IL-1β production in THP1-Null cells (Product Number: thp-null, InvivoGen).
The supernatant of the culture was removed, and thereto was added media for assay (25 µL/well) containing 1 µg/mL Lipopolysaccharides (Product Number: L2654, Sigma-Aldrich (registered trademark)). […] The supernatant of the culture was removed. […] A solution containing a test compound (20 µL/well) was added to test compound-setting wells. […] The supernatant of the culture was cryonically stored (set at -20°C) until measurement of IL-1β.
The amount of IL-1β in the culture supernatant was quantitated with AlphaLISA (registered trademark) Human IL-1β Detection Kit (Product Number: AL220C, Perkin Elmer). Fluorescence intensity was measured with a microplate reader EnSpier (Model number: 2300-00J, Perkin Elmer) or EnSight (Model number: HH34000000, Perkin Elmer) according to procedure manuals attached thereto. Inhibition rates of the test compound-setting wells were calculated on the basis of 100% for the blank-setting wells and 0% for the control-setting wells.

| SMILES | pIC50 |
| --- | --- |
| Cc1cc(Br)cc(C)c1-n1cc2c(=O)[nH]c(C34CC(C3)C4)nc2n1 [Example 60] | 7.22 |
| Cc1cc(C(C)(C)F)cc(C)c1-n1cc2c(=O)[nH]c(C3CC3)nc2n1 [Example 85] | 7.54 |

Same assay, conditions: IL-1β production in THP1-Null cells; PMA, 1 µg/mL Lipopolysaccharides 3 hours, Nigericin 7.5 µmol/L 1.5 hours

| SMILES | pIC50 |
| --- | --- |
| Cc1cc(Br)cc(C)c1-n1cc2c(=O)[nH]c([C@@H]3C[C@@H]3F)nc2n1 [Example 91] | 8.10 |
| Cc1cc(Br)cc(C)c1-n1cc2c(=O)[nH]c(C3CC3F)nc2n1 (stereo not drawn) [Example 92] | 8.15 |

Same assay, conditions: IL-1β production in THP1-Null cells; PMA, 1 µg/mL Lipopolysaccharides 3 hours, Nigericin 7.5 µmol/L 1.5 hours; read-out: IC50

| SMILES | pIC50 |
| --- | --- |
| Cc1cc(C2CC2)cc(C)c1-n1cc2c(=O)[nH]c(C34COC(C)(C3)C4)nc2n1 [Example 52] | 7.40 |
| COc1cc(C)c(-n2cc3c(=O)[nH]c(C4CC4)nc3n2)c(C)c1 [Example 53] | 6.85 |
| Cc1cc(OC(F)F)cc(C)c1-n1cc2c(=O)[nH]c(C3CC3)nc2n1 [Example 54] | 7.48 |
| Cc1cc(C(F)(F)F)cc(C)c1-n1cc2c(=O)[nH]c(C3CC3)nc2n1 [Example 55] | 7.51 |
| COCc1cc(C2CC2)cc(C)c1-n1cc2c(=O)[nH]c(C3CC3)nc2n1 [Example 58] | 7.44 |
| Cc1nn(C2CCC2)c(C)c1-n1cc2c(=O)[nH]c(C3CC3)nc2n1 [Example 59] | 5.77 |
| Cc1c(-n2cc3c(=O)[nH]c(C4CC4)nc3n2)c(C(F)(F)F)nn1C(C)C [Example 61] | 6.34 |
| Cc1cc(Br)cc(C)c1-n1cc2c(=O)[nH]c(Cn3cccn3)nc2n1 [Example 62] | 6.64 |
| Cc1cc(OC(F)F)cc(C)c1-n1cc2c(=O)[nH]c(C3CCOCC3)nc2n1 [Example 64] | 7.66 |
| Cc1c(-n2cc3c(=O)[nH]c(C4CCCC4)nc3n2)c(C(F)(F)F)nn1C(C)C [Example 65] | 6.52 |
| Cc1cc(Br)cc(C)c1-n1cc2c(=O)[nH]c(CN3CCCC3=O)nc2n1 [Example 66] | 6.37 |
| COc1cc(C)c(-n2cc3c(=O)[nH]c(COCc4ccccc4)nc3n2)c(C)c1 [Example 67] | 6.11 |
| Cc1cc(Br)cc(C)c1-n1cc2c(=O)[nH]c(C3(F)CCC3)nc2n1 [Example 68] | 7.12 |
| Cc1cc(C2CC2)cc(C)c1-n1cc2c(=O)[nH]c(C3(F)CCC3)nc2n1 [Example 69] | 7.17 |
| Cc1cc(Br)cc(C)c1-n1cc2c(=O)[nH]c(C(C)(C)F)nc2n1 [Example 70] | 6.89 |
| Cc1cc(Br)cc(C)c1-n1cc2c(=O)[nH]c(C3CCCCC3)nc2n1 [Example 71] | 7.96 |
| CC(=O)c1c2c(=O)[nH]c(C3COC3)nc2nn1-c1c(C)cc(Br)cc1C [Example 72] | 7.24 |
| Cc1cc(C2CC2)cc(C)c1-n1cc2c(=O)[nH]c(C3(F)CCOCC3)nc2n1 [Example 73] | 7.68 |
| Cc1cc(Br)cc(C)c1-n1cc2c(=O)[nH]c(COCCC(C)(C)O)nc2n1 [Example 74] | 6.72 |
| Cc1cc(C2CC2)cc(OC(F)F)c1-n1cc2c(=O)[nH]c(C3CC3)nc2n1 [Example 75] | 7.96 |
| COCc1cc(OC(F)F)cc(C)c1-n1cc2c(=O)[nH]c(C3CC3)nc2n1 [Example 76] | 7.09 |
| Cc1cc(Br)cc(C)c1-n1cc2c(=O)[nH]c(C3COC3)nc2n1 [Example 77] | 7.85 |
| Cc1cc(C(C)(F)F)cc(C)c1-n1cc2c(=O)[nH]c(C3CC3)nc2n1 [Example 80] | 7.54 |

| SMILES | pIC50 |
| --- | --- |
| Cc1cc(Br)cc(C)c1-n1cc2c(=O)[nH]c(C3CCOCC3)nc2n1 [Example 81] | 8.40 |
| Cc1cc(Br)cc(C)c1-n1nc2nc(C3CCOCC3)[nH]c(=O)c2c1C(F)F [Example 82] | 7.80 |
| Cc1cc(C2CC2)cc(C)c1-n1nc2nc(C3CC3)[nH]c(=O)c2c1CO [Example 83, 6-cyclopropyl-2-(4-cyclopropyl-2,6-dimethylphenyl)-3-(hydroxymethyl)-2,5-dihydro-4H-pyrazolo[3,4-d]pyrimidin-4-one] | 7.62 |
| Cc1cc(C2CC2)cc(C)c1-n1nc2nc(C3CC3)[nH]c(=O)c2c1CF [Example 84] | 7.82 |
| Cc1cc(C2CC2)cc(C)c1-n1nc2nc(C3CC3)[nH]c(=O)c2c1C#N [Example 87] | 7.96 |
| COCc1c2c(=O)[nH]c(C3CC3)nc2nn1-c1c(C)cc(C2CC2)cc1C [Example 88, 6-cyclopropyl-2-(4-cyclopropyl-2,6-dimethylphenyl)-3-(methoxymethyl)-2,5-dihydro-4H-pyrazolo[3,4-d]pyrimidin-4-one] | 7.74 |
| Cc1cc(OC(F)F)cc(C)c1-n1cc2c(=O)[nH]c(C3CC(C)OC(C)C3)nc2n1 (stereo not drawn) [Example 89] | 6.35 |
| Cc1cc(OC(F)F)cc(C)c1-n1cc2c(=O)[nH]c(C3CCN(C)CC3)nc2n1 [Example 90] | 7.17 |
| COc1cc(C)c(-n2cc3c(=O)[nH]c(C45CC(CO)(CO4)C5)nc3n2)c(C)c1 [Example 94] | 6.66 |
| Cc1cc(C2CC2)cc(C)c1-n1cc2c(=O)[nH]c(C34CC(CO)(CO3)C4)nc2n1 [Example 95] | 7.38 |
| Cc1cc(Br)cc(C)c1-n1cc2c(=O)[nH]c(COCCO)nc2n1 [Example 96] | 6.57 |
| Cc1cc(Br)cc(C)c1-n1cc2c(=O)[nH]c(C3(F)CCOCC3)nc2n1 [Example 97] | 7.62 |
| CCOCCc1nc2nn(-c3c(C)cc(Br)cc3C)cc2c(=O)[nH]1 [Example 98] | 7.01 |
| COCCc1nc2nn(-c3c(C)cc(C4CC4)cc3C)cc2c(=O)[nH]1 [Example 99] | 7.37 |
| Cc1cc(C2CC2)cc(C)c1-n1cc2c(=O)[nH]c(CCF)nc2n1 [Example 101] | 7.62 |
| Cc1cc(Br)cc(C)c1-n1cc2c(=O)[nH]c(C3=CCOCC3)nc2n1 [Example 102] | 8.10 |
| Cc1cc(C2CC2(F)F)cc(C)c1-n1cc2c(=O)[nH]c(C3CC3(F)F)nc2n1 (stereo not drawn) [Example 103] | 7.19 |
| Cc1cc(C2CC2)cc(C)c1-n1cc2c(=O)[nH]c(CO)nc2n1 [Example 105] | 7.89 |
| Cc1cc(C2CC2)cc(C)c1-n1cc2c(=O)[nH]c(CCO)nc2n1 [Example 106] | 7.55 |
| Cc1cc(C(C)(F)F)cc(C)c1-n1cc2c(=O)[nH]c(C3(F)CCOCC3)nc2n1 [Example 107] | 7.82 |
| Cc1cc(Br)cc(C)c1-n1cc2c(=O)[nH]c(C3(F)COC3)nc2n1 [Example 108] | 7.31 |
| Cc1cc(C(C)(C)F)cc(C)c1-n1cc2c(=O)[nH]c(C3(F)CCOCC3)nc2n1 [Example 109] | 7.77 |
| Cc1cc(C2CC2)cc(F)c1-n1cc2c(=O)[nH]c(C3(F)CCOCC3)nc2n1 [Example 110] | 7.72 |

| SMILES | pIC50 |
| --- | --- |
| COc1cc(C2CC2)cc(C)c1-n1cc2c(=O)[nH]c(C3(F)CCOCC3)nc2n1 [Example 111] | 7.82 |
| Cc1cc(Br)cc(C)c1-n1cc2c(=O)[nH]c(CN3CCCCC3)nc2n1 [Example 112] | 6.85 |
| Cc1cc(C(C)(F)F)cc(C)c1-n1cc2c(=O)[nH]c(C3(F)COC3)nc2n1 [Example 116] | 6.55 |
| Cc1cc(C2CC2)cc(C)c1-n1cc2c(=O)[nH]c(C3=CCOCC3)nc2n1 [Example 131] | 8.30 |
| Cc1cc(Br)cc(C)c1-n1cc2c(=O)[nH]c(COC(F)F)nc2n1 [Example 132] | 7.62 |
| Cc1cc(OC(F)F)cc(C)c1-n1cc2c(=O)[nH]c(C3=CCOCC3)nc2n1 [Example 135] | 7.48 |
| Cc1cc(OC(F)F)cc(C)c1-n1cc2c(=O)[nH]c(C3(F)CCOCC3)nc2n1 [Example 136] | 7.31 |
| Cc1cc(C2CC2)cc(C)c1-n1cc2c(=O)[nH]c(COC(F)F)nc2n1 [Example 145] | 7.89 |
| Cc1cc(OC(F)F)cc(C)c1-n1cc2c(=O)[nH]c(COC(F)F)nc2n1 [Example 148] | 7.21 |
| Cc1cc(C(C)(F)F)cc(C)c1-n1cc2c(=O)[nH]c(C3=CCOCC3)nc2n1 [Example 153] | 7.77 |
| Cc1cc(OC(F)F)cc(C)c1-n1cc2c(=O)[nH]c(C3(F)CC3)nc2n1 [Example 159] | 7.24 |
| Cc1cc(Br)cc(C)c1-n1cc2c(=O)[nH]c(CC3CC3)nc2n1 [Example 161] | 8.00 |
| Cc1cc(C(C)(F)F)cc(C)c1-n1cc2c(=O)[nH]c(C3(F)CC3)nc2n1 [Example 162] | 7.24 |
| Cc1cc(OC(F)F)cc(C)c1-n1cc2c(=O)[nH]c(CC3CC3)nc2n1 [Example 164] | 7.17 |
| CCc1nc2nn(-c3c(C)cc(OC(F)F)cc3C)cc2c(=O)[nH]1 [Example 180] | 7.70 |
| CCc1nc2nn(-c3c(C)cc(C(C)(F)F)cc3C)cc2c(=O)[nH]1 [Example 181] | 7.74 |
| Cc1cc(Br)cc(C)c1-n1cc2c(=O)[nH]c([C@H]3CCOCCO3)nc2n1 [Example 185] | 7.64 |
| Cc1cc(Br)cc(C)c1-n1cc2c(=O)[nH]c([C@@H]3CCOCCO3)nc2n1 [Example 186] | 7.06 |
| CCc1nc2nn(-c3c(C)cc(C4(F)CC4)cc3C)cc2c(=O)[nH]1 [Example 192] | 7.70 |
| Cc1cc(C2CC2)cc(C)c1-n1cc2c(=O)[nH]c(C(=O)N(C)C)nc2n1 [Example 195] | 6.74 |
| CNC(=O)c1nc2nn(-c3c(C)cc(C4CC4)cc3C)cc2c(=O)[nH]1 [Example 196] | 7.66 |

Same assay, conditions: test compound at 0.002 µM; IL-1β production in THP1-Null cells

| SMILES | inhibition at 0.002 µM |
| --- | --- |
| Cc1cc(OC(F)F)cc(C)c1-n1cc2c(=O)[nH]c(C3=COCC3)nc2n1 [Example 175] | 54% |
